Source: patent publication US10351548B2, “2-oxo-1,2-dihydropyridine-3-carboxamide compounds and their use as inhibitors of PDK1” (INTERNATIONAL SOCIETY FOR DRUG DEVELOPMENT S.R.L., priority 2015, dated 2019)
Read-outs that look alike come from different tables or passages of the source.

How the values were obtained:
Format in all cases: biochemical
MAPK9 (JNK2) = MAPK9 (JNK2) (Homo sapiens (Human), UniProt P45984); assay: IB35 kinases profiling at 100 nM (ZLYTE); conditions: IB35 100 nM, ATP 100
MAPK9 (JNK2), sequence (P45984 whole entry, species assumed): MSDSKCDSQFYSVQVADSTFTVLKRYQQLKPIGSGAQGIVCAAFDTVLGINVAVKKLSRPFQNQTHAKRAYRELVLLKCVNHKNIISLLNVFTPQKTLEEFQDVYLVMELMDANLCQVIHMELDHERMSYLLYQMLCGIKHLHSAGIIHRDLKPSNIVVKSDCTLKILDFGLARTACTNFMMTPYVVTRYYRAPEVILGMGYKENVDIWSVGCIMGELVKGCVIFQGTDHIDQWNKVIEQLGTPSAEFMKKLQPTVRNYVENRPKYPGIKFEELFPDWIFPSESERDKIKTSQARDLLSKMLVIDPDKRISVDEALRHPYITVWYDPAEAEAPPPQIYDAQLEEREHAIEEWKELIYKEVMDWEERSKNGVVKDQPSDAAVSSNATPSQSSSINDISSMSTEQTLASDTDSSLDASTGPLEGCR
Source text: (§1) The results are reported below

IRAK4 = IRAK4 (Homo sapiens (Human), UniProt Q9NWZ3); assay: IB35 kinases profiling at 100 nM (ZLYTE); conditions: IB35 100 nM, ATP Km app
Source text: as §1

ROCK1 = ROCK1 (Homo sapiens (Human), UniProt Q13464); assay: IB35 kinases profiling at 100 nM (ZLYTE); conditions: IB35 100 nM, ATP Km app
ROCK1, sequence (Q13464 whole entry, species assumed): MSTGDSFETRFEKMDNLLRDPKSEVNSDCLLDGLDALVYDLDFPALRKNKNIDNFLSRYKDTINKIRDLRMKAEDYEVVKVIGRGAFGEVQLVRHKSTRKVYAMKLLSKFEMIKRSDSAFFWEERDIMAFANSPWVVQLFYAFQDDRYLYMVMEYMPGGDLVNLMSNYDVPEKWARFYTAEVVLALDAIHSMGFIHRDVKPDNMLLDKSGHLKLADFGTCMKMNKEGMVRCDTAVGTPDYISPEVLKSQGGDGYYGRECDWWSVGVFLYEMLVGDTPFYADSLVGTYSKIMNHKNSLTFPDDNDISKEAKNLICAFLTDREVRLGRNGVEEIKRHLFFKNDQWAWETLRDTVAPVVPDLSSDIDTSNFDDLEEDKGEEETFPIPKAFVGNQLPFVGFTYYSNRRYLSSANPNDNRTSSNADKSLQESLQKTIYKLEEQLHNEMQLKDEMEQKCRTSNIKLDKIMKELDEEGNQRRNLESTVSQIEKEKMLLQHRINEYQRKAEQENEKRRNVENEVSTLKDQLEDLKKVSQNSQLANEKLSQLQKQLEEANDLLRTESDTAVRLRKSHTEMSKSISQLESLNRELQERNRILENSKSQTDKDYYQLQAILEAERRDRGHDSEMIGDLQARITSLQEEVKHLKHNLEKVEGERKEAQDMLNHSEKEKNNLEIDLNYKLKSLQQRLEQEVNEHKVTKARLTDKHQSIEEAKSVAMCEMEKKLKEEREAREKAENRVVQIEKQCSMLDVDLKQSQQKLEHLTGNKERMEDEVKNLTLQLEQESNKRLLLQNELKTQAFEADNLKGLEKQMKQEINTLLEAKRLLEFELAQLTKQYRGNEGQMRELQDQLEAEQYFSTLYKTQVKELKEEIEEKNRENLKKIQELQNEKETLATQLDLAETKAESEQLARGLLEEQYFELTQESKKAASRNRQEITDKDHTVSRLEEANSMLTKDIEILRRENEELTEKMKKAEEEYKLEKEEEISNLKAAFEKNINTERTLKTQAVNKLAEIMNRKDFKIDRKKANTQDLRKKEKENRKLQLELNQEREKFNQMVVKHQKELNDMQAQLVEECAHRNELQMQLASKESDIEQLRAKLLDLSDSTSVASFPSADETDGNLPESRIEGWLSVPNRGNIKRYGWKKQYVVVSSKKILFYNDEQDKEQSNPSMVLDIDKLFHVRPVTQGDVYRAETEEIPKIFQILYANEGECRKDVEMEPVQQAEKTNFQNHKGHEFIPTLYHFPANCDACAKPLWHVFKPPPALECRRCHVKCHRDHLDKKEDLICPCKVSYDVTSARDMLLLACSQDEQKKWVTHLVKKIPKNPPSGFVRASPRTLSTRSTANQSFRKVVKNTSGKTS
Source text: as §1

GSK3B (GSK3 beta) = GSK3B (GSK3 beta) (Homo sapiens (Human), UniProt P49841); assay: IB35 kinases profiling at 100 nM (ZLYTE); conditions: IB35 100 nM, ATP Km app
Source text: as §1

BRAF = BRAF (Homo sapiens (Human), UniProt P15056); assay: IB35 kinases profiling at 100 nM (ZLYTE); conditions: IB35 100 nM, ATP 100
BRAF, sequence (P15056 whole entry): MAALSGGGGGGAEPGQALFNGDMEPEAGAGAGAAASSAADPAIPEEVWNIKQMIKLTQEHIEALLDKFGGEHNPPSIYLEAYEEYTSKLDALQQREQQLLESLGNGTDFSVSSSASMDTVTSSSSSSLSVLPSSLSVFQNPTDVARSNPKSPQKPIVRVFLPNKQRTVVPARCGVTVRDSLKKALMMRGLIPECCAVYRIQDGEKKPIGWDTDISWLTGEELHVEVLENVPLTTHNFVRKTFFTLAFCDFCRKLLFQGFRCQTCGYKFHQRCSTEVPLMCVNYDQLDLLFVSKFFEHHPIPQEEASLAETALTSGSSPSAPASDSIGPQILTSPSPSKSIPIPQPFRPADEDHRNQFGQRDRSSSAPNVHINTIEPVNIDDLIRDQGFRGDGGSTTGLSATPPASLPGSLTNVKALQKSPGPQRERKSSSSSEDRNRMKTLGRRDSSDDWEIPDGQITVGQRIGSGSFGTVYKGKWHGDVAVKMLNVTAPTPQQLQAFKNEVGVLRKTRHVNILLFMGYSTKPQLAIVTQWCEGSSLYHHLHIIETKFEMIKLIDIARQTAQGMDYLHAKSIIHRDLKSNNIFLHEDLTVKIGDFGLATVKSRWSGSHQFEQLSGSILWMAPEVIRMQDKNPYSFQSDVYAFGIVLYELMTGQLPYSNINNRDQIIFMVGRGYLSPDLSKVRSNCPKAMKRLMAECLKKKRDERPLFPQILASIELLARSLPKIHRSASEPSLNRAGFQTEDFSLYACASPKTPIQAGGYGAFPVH
Source text: as §1

MAPK8 (JNK1) = MAPK8 (JNK1) (Homo sapiens (Human), UniProt P45983); assay: IB35 kinases profiling at 100 nM (ZLYTE); conditions: IB35 100 nM, ATP 100
Source text: as §1

CHEK2 (CHK2) = CHEK2 (CHK2) (Homo sapiens (Human), UniProt O96017); assay: IB35 kinases profiling at 100 nM (ZLYTE); conditions: IB35 100 nM, ATP Km app
Source text: as §1

AKT2 (PKB beta) = AKT2 (PKB beta) (Homo sapiens (Human), UniProt P31751); assay: IB35 kinases profiling at 100 nM (ZLYTE); conditions: IB35 100 nM, ATP Km app
AKT2 (PKB beta), sequence (P31751 whole entry): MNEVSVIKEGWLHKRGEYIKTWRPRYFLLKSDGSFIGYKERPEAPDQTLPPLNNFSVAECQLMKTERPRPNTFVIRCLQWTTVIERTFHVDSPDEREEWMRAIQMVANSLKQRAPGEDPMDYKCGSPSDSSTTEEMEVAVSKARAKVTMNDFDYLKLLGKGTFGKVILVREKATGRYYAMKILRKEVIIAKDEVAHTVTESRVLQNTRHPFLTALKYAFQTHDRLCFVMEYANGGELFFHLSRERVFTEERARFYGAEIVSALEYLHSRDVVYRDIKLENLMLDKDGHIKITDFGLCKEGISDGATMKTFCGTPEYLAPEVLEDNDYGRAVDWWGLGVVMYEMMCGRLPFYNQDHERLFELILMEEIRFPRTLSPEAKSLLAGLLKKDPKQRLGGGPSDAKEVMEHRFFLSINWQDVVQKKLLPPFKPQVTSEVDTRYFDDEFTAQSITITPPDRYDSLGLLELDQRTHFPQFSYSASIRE
Source text: as §1

ABL1 = ABL1 (Homo sapiens (Human), UniProt P00519); assay: IB35 kinases profiling at 100 nM (ZLYTE); conditions: IB35 100 nM, ATP Km app
Source text: as §1

CSNK2A2 (CK2 alpha 2) = CSNK2A2 (CK2 alpha 2) (Homo sapiens (Human), UniProt P19784); assay: IB35 kinases profiling at 100 nM (ZLYTE); conditions: IB35 100 nM, ATP Km app
CSNK2A2 (CK2 alpha 2), sequence (P19784 whole entry, species assumed): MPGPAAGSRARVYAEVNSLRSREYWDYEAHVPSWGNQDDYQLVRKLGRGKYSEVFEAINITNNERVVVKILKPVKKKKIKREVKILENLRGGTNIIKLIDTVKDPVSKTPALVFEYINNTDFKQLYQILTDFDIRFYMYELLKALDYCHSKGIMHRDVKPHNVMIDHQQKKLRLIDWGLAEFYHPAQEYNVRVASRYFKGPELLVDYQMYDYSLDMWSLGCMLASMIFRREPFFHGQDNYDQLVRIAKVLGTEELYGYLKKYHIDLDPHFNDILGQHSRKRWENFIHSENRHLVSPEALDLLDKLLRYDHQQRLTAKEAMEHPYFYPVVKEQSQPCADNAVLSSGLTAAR
Source text: as §1

RPS6KB1 (p70S6K) = RPS6KB1 (p70S6K) (Homo sapiens (Human), UniProt P23443); assay: IB35 kinases profiling at 100 nM (ZLYTE); conditions: IB35 100 nM, ATP Km app
RPS6KB1 (p70S6K), sequence (P23443 whole entry, species assumed): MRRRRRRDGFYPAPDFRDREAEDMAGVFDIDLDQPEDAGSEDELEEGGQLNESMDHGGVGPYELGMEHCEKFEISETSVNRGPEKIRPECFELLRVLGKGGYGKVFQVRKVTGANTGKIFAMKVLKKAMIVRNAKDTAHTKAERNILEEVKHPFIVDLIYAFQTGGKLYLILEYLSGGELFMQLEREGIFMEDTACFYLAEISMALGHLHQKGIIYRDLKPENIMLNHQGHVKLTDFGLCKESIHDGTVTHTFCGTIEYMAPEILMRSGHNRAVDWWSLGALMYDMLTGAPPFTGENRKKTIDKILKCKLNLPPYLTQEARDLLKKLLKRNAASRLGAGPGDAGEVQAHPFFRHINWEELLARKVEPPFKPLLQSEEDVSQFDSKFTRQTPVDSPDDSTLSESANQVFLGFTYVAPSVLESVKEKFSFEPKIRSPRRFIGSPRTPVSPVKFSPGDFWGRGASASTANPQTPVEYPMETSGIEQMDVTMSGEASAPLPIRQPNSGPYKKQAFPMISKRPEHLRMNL
Source text: as §1

FRAP1 (mTOR) = FRAP1 (mTOR) (Homo sapiens (Human), UniProt P42345); assay: IB35 kinases profiling at 100 nM (ZLYTE); conditions: IB35 100 nM, ATP Km app
Source text: as §1

CDC42 BPA (MRCKA) = CDC42 BPA (MRCKA) (Homo sapiens (Human), UniProt Q5VT25); assay: IB35 kinases profiling at 100 nM (ZLYTE); conditions: IB35 100 nM, ATP Km app
Source text: as §1

AKT3 (PKB gamma) = AKT3 (PKB gamma) (Homo sapiens (Human), UniProt Q9Y243); assay: IB35 kinases profiling at 100 nM (ZLYTE); conditions: IB35 100 nM, ATP Km app
Source text: as §1

PIK3CG (p110 gamma) = PIK3CG (p110 gamma) (Homo sapiens (Human), UniProt P48736); assay: IB35 kinases profiling at 100 nM (Adapta); conditions: IB35 100 nM, ATP Km app
PIK3CG (p110 gamma), sequence (P48736 whole entry): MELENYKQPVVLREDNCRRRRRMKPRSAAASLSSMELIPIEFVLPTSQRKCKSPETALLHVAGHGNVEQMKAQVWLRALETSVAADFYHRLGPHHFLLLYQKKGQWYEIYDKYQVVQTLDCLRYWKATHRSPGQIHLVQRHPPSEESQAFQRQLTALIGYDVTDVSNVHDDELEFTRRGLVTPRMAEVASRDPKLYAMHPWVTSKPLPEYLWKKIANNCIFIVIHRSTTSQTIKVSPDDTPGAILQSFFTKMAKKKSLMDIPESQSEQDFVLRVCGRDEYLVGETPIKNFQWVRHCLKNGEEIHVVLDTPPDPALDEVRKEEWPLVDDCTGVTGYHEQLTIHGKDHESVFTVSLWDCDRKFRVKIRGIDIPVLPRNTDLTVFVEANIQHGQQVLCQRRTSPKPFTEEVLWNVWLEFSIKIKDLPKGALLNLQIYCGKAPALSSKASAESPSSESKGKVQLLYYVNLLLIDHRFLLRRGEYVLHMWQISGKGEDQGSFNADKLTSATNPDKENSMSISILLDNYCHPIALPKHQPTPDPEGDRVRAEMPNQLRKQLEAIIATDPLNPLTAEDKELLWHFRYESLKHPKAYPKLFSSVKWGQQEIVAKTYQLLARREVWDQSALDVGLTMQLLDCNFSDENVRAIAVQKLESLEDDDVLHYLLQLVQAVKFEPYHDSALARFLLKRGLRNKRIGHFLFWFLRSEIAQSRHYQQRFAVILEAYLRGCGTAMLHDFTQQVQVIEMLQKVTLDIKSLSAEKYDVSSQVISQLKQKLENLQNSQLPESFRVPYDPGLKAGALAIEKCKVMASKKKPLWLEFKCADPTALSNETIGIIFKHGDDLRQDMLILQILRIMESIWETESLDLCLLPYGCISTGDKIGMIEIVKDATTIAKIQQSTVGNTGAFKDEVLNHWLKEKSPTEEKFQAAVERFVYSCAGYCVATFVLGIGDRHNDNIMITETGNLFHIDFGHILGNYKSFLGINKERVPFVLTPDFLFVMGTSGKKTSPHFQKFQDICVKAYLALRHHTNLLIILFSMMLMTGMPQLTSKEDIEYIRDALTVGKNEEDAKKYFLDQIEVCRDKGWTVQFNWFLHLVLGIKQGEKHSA
Source text: as §1

[1] = molecular target: PIK3CA/PIK3R1 (p110 alpha/p85 alpha) (Homo sapiens (Human), UniProt P42336); assay: IB35 kinases profiling at 100 nM (Adapta); conditions: IB35 100 nM, ATP Km app
Source text: as §1

CHUK (IKK alpha) = CHUK (IKK alpha) (Homo sapiens (Human), UniProt O15111); assay: IB35 kinases profiling at 100 nM (Adapta); conditions: IB35 100 nM, ATP Km app
Source text: as §1

CDK7/cyclin H/MNAT1 = CDK7/cyclin H/MNAT1 (Homo sapiens (Human), UniProt P50613); assay: IB35 kinases profiling at 100 nM (Adapta); conditions: IB35 100 nM, ATP Km app
Source text: as §1

PI4KB (PI4K beta) = PI4KB (PI4K beta) (Homo sapiens (Human), UniProt Q9UBF8); assay: IB35 kinases profiling at 100 nM (Adapta); conditions: IB35 100 nM, ATP Km app
Source text: as §1

[2] = molecular target: PIK3CD/PIK3R1 (p110 delta/p85 alpha) (Homo sapiens (Human), UniProt O00329); assay: IB35 kinases profiling at 100 nM (Adapta); conditions: IB35 100 nM, ATP Km app
Source text: as §1

CDK9/cyclin T1 = CDK9/cyclin T1 (Homo sapiens (Human), UniProt P50750); assay: IB35 kinases profiling at 100 nM (Adapta); conditions: IB35 100 nM, ATP Km app
Source text: as §1

## O=C(CNC(=O)c1cccn(Cc2ccc(F)c(F)c2)c1=O)Nc1ccc2c(c1)/C(=C/c1cnc[nH]1)C(=O)N2 [IB35, (Z)—N-(2-((3-((1H-imidazol-5-yl)methylene)-2-oxoindolin-5-yl)amino)-2-oxoethyl)-1-(3,4-difluorobenzyl)-2-oxo-1,2-dihydro pyridine-3-carboxamide]
MAPK9 (JNK2); read-out: % Inhibition 1
  inhibition at 0.1 µM: 3%
MAPK9 (JNK2); read-out: % Inhibition 2
  inhibition at 0.1 µM: -5%
MAPK9 (JNK2); read-out: % Inhibition Avg
  inhibition at 0.1 µM: -1%
IRAK4; read-out: % Inhibition 1
  inhibition at 0.1 µM: 3%
IRAK4; read-out: % Inhibition 2
  inhibition at 0.1 µM: -14%
IRAK4; read-out: % Inhibition Avg
  inhibition at 0.1 µM: -6%
ROCK1; read-out: % Inhibition 1
  inhibition at 0.1 µM: -9%
ROCK1; read-out: % Inhibition 2
  inhibition at 0.1 µM: -6%
ROCK1; read-out: % Inhibition Avg
  inhibition at 0.1 µM: -7%
GSK3B (GSK3 beta); read-out: % Inhibition 1
  inhibition at 0.1 µM: 23%
GSK3B (GSK3 beta); read-out: % Inhibition 2
  inhibition at 0.1 µM: 25%
GSK3B (GSK3 beta); read-out: % Inhibition Avg
  inhibition at 0.1 µM: 24%
BRAF; read-out: % Inhibition 1
  inhibition at 0.1 µM: 16%
BRAF; read-out: % Inhibition 2
  inhibition at 0.1 µM: 17%
BRAF; read-out: % Inhibition Avg
  inhibition at 0.1 µM: 17%
MAPK8 (JNK1); read-out: % Inhibition 1
  inhibition at 0.1 µM: 4%
MAPK8 (JNK1); read-out: % Inhibition 2
  inhibition at 0.1 µM: 21%
MAPK8 (JNK1); read-out: % Inhibition Avg
  inhibition at 0.1 µM: 12%
CHEK2 (CHK2); read-out: % Inhibition 1
  inhibition at 0.1 µM: 1%
CHEK2 (CHK2); read-out: % Inhibition 2
  inhibition at 0.1 µM: 8%
CHEK2 (CHK2); read-out: % Inhibition Avg
  inhibition at 0.1 µM: 4%
AKT2 (PKB beta); read-out: % Inhibition 1
  inhibition at 0.1 µM: 0%
AKT2 (PKB beta); read-out: % Inhibition 2
  inhibition at 0.1 µM: -9%
AKT2 (PKB beta); read-out: % Inhibition Avg
  inhibition at 0.1 µM: -4%
ABL1; read-out: % Inhibition 1
  inhibition at 0.1 µM: 17%
ABL1; read-out: % Inhibition 2
  inhibition at 0.1 µM: 12%
ABL1; read-out: % Inhibition Avg
  inhibition at 0.1 µM: 14%
CSNK2A2 (CK2 alpha 2); read-out: % Inhibition 1
  inhibition at 0.1 µM: 4%
CSNK2A2 (CK2 alpha 2); read-out: % Inhibition 2
  inhibition at 0.1 µM: 3%
CSNK2A2 (CK2 alpha 2); read-out: % Inhibition Avg
  inhibition at 0.1 µM: 3%
RPS6KB1 (p70S6K); read-out: % Inhibition 1
  inhibition at 0.1 µM: -3%
RPS6KB1 (p70S6K); read-out: % Inhibition 2
  inhibition at 0.1 µM: -10%
RPS6KB1 (p70S6K); read-out: % Inhibition Avg
  inhibition at 0.1 µM: -6%
FRAP1 (mTOR); read-out: % Inhibition 1
  inhibition at 0.1 µM: -10%
FRAP1 (mTOR); read-out: % Inhibition 2
  inhibition at 0.1 µM: -18%
FRAP1 (mTOR); read-out: % Inhibition Avg
  inhibition at 0.1 µM: -14%
CDC42 BPA (MRCKA); read-out: % Inhibition 1
  inhibition at 0.1 µM: -1%
CDC42 BPA (MRCKA); read-out: % Inhibition 2
  inhibition at 0.1 µM: -6%
CDC42 BPA (MRCKA); read-out: % Inhibition Avg
  inhibition at 0.1 µM: -3%
AKT3 (PKB gamma); read-out: % Inhibition 1
  inhibition at 0.1 µM: 3%
AKT3 (PKB gamma); read-out: % Inhibition 2
  inhibition at 0.1 µM: 1%
AKT3 (PKB gamma); read-out: % Inhibition Avg
  inhibition at 0.1 µM: 2%
PIK3CG (p110 gamma); read-out: % Inhibition 1
  inhibition at 0.1 µM: 6%
PIK3CG (p110 gamma); read-out: % Inhibition 2
  inhibition at 0.1 µM: -1%
PIK3CG (p110 gamma); read-out: % Inhibition Avg
  inhibition at 0.1 µM: 2%
[1]; read-out: % Inhibition 1
  inhibition at 0.1 µM: 16%
[1]; read-out: % Inhibition 2
  inhibition at 0.1 µM: 24%
[1]; read-out: % Inhibition Avg
  inhibition at 0.1 µM: 20%
CHUK (IKK alpha); read-out: % Inhibition 1
  inhibition at 0.1 µM: -2%
CHUK (IKK alpha); read-out: % Inhibition 2
  inhibition at 0.1 µM: 7%
CHUK (IKK alpha); read-out: % Inhibition Avg
  inhibition at 0.1 µM: 3%
CDK7/cyclin H/MNAT1; read-out: % Inhibition 1
  inhibition at 0.1 µM: 2%
CDK7/cyclin H/MNAT1; read-out: % Inhibition 2
  inhibition at 0.1 µM: -1%
CDK7/cyclin H/MNAT1; read-out: % Inhibition Avg
  inhibition at 0.1 µM: 1%
PI4KB (PI4K beta); read-out: % Inhibition 1
  inhibition at 0.1 µM: -3%
PI4KB (PI4K beta); read-out: % Inhibition 2
  inhibition at 0.1 µM: 12%
PI4KB (PI4K beta); read-out: % Inhibition Avg
  inhibition at 0.1 µM: 4%
[2]; read-out: % Inhibition 1
  inhibition at 0.1 µM: 13%
[2]; read-out: % Inhibition 2
  inhibition at 0.1 µM: 21%
[2]; read-out: % Inhibition Avg
  inhibition at 0.1 µM: 17%
CDK9/cyclin T1; read-out: % Inhibition 1
  inhibition at 0.1 µM: 7%
CDK9/cyclin T1; read-out: % Inhibition 2
  inhibition at 0.1 µM: 5%
CDK9/cyclin T1; read-out: % Inhibition Avg
  inhibition at 0.1 µM: 6%
